Measured values from US20250170100A1, “MONOACYLGLYCEROL LIPASE INHIBITORS AND USE THEREOF FOR THE TREATMENT OF ANXIETY AND RELATED CONDITIONS” (Psy Therapeutics, Inc., priority 2021, published 2025).
Read-outs that look alike come from different tables or passages of the source.

What was measured:
Type in all cases: biochemical
human MAGL [1] = biological target: T1, human MAGL (Homo sapiens (Human), UniProt Q99685); assay: MAGL inhibition potency assay with 4NPA substrate (methods of Table C)
Target sequence in this assay (Q99685 2-303): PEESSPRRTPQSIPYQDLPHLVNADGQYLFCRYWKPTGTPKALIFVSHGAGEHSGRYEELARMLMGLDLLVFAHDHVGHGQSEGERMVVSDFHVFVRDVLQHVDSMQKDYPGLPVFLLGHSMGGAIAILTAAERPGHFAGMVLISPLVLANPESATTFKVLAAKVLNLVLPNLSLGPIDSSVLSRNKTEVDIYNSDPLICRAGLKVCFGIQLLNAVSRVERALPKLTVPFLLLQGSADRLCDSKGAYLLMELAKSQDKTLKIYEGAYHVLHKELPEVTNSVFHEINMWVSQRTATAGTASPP

human MAGL [2] = biological target: T1, human MAGL; assay: as above; remark: listed apart in the source
Excerpt: Cayman's Monoacylglycerol Lipase Inhibitor Screening Assay provides a method for screening human MAGL inhibitors. MAGL hydrolyzes 4-nitrophenylacetate resulting in a yellow product, 4-nitrophenol, with an absorbance of 405-412 nm. The monoacylglycerol lipase inhibitor screening assay kit from Cayman Chemical was used to measure the MAGL potency for the compounds in Table 3 and Table 4. Cayman's Monoacylglycerol Lipase Inhibitor Screening Assay provides a method for screening human MAGL inhibitors. MAGL hydrolyzes 4-nitrophenylacetate resulting in a yellow product, 4-nitrophenol, with an absorbance of 405-412 nm. MAGL Inhibition was measured by the following assay. Monoacylglycerol Lipase (MAGL) inhibition was measured using recombinant MAGL enzyme (aa 2-303 RBC, internal preparation) and the substrate 4-Nitrophenyl acetate (4NPA) (Sigma-Aldrich, N8130). Hydrolysis of the substrate in the presence of the enzyme was measured by absorbance at 405 nm. 10 μL of assay buffer (10 mM Tris pH 7.5, 1 mM EDTA, 0.9% DMSO) was added to a black 384-well non-binding plate with clear bottom (Greiner, 781906) for each reaction. […] DMSO control wells were included for reference. A 10.8 nM (1.8×) MAGL mix in assay buffer was prepared, with […] added to each reaction well, for a final assay concentration of 6 nM. No enzyme wells received 25 μL of buffer. Plate was incubated at room temperature for 30 minutes. 35 mM solution of 4NPA in methanol was prepared daily. A 4.5×4NPA substrate solution was prepared in assay buffer and 10 μL was added to each reaction well, for a final assay concentration of 0.25 mM. Plate was spun for 1 minute at 1000 rpm before measuring absorbance using a CLARIOstar plate reader (BMG Labtech). A kinetic reading at 405 nm was done every minute for 30 minutes. Data was analyzed using the linear slope of the reaction progress curve and the average of the no-enzyme wells (background) was subtracted from the data. The background-subtracted slope data was converted to % activity using the average of wells with enzyme and DMSO vehicle. IC50s were calculated using GraphPad software (Sigmoidal dose response, variable slope equation). […] Table 5 provides potency measurements of MAGL inhibition measured using the Potency Assay of Example 18 above, with the following modifications described in Table C. [table]
Target sequence in this assay (Q99685 2-303): as above

human MAGL [3] = biological target: T1, human MAGL; assay: MAGL reversible inhibition assay (washout); conditions: for A: degree to which MAGL enzymatic activity returned following washout: pre-washout compound concentration: 1 μM
Method: The reversible mechanism of MAGL inhibition of a test compound of Formula (I) can be determined. Flag-tagged MAGL enzyme will be immobilized on anti-Flag beads. Immobilized enzyme will be incubated+/−inhibitor at a dose that produces complete inhibition. Colorimetric substrate (4-NPA) will be added and the reaction monitored on a plate reader for 30 minutes to verify complete inhibition. Immobilized enzyme will then be washed thoroughly to remove the inhibitor, and fresh substrate will be added. The reaction will be monitored for an additional 30 minutes; returning enzymatic activity will indicate reversibility of inhibition.
MAGL enzyme was incubated for 30 minutes in the presence of 40× the IC50 concentration of inhibitor. Enzyme+inhibitor mix was then diluted 40-fold so that the final concentration of the inhibitor equaled the IC50 concentration. Substrate was added and the reaction was monitored for 30 minutes.
Target sequence in this assay (Q99685 whole entry): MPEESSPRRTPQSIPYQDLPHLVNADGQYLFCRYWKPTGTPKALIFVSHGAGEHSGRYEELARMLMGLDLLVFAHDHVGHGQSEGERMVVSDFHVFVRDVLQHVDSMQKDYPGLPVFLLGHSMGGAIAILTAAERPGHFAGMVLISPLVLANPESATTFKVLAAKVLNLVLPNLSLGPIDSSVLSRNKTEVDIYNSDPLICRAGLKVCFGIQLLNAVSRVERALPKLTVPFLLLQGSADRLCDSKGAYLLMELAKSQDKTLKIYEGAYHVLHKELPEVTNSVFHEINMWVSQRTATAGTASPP

[4] = Method 12: Reaction Biology MAGL enzyme, 15 nM, read-out: Potency (MAGL inhibition)
[5] = Method 2: Cayman Chemical MAGL enzyme, 10 nM, read-out: Potency (MAGL inhibition)
[6] = Method 14: Reaction Biology MAGL enzyme, 6 nM, read-out: MAGL Potency (Detection Method)
[7] = Method 1: Reaction Biology MAGL enzyme, 6 nM, read-out: MAGL Potency (Detection Method)
[8] = Method 2: Cayman Chemical MAGL enzyme, 10 nM, read-out: MAGL Potency (Detection Method)
[9] = Method 3: Reaction Biology MAGL enzyme, 10 nM, read-out: MAGL Potency (Detection Method)
[10] = Method 6: Reaction Biology MAGL enzyme, 6 nM, read-out: Potency (MAGL inhibition)
[11] = Method 14: Reaction Biology MAGL enzyme, 6 nM, read-out: Potency (MAGL inhibition)

SMILES: Cc1cnn(C2CC3(C2)CN(C(=O)c2cc(O)ccc2F)C3)c1-c1ccccc1F [Compound 494]
- IC50 (human MAGL [1]; [4]): > 10 µM

SMILES: Cc1cc(C2CC3(C2)CN(C2CCOc4ccccc42)C3)n(-c2ccccc2C)n1 (stereo not drawn) [Compound 152]
- IC50 (human MAGL [1]; [5]): > 10 µM

SMILES: Cc1cc(C2CC3(C2)CN(C(=O)c2cc(O)ccc2F)C3)n(-c2cc(F)ccc2C)n1 [Compound 365, (2-fluoro-5-hydroxyphenyl) {6-[1-(5-fluoro-2-tolyl)-3-methyl-5-pyrazolyl]-2-aza-2-spiro[3.3]heptyl}methanone]
- IC50 (human MAGL [2]; [6]): < 0.05 µM

SMILES: COc1cc(F)ccc1C(=O)N1CC2(CC(c3cc(C)nn3-c3ccccc3C)C2)C1 [Compound 149]
- IC50 (human MAGL [1]; [5]): > 10 µM

SMILES: Cc1cc(C2CC3(C2)CN(C(=O)c2cc(O)c(F)cc2F)C3)n(-c2ccccc2C)n1 [Compound 126, (2,4-difluoro-5-hydroxyphenyl) (6-(3-methyl-1-(o-tolyl)-1H-pyrazol-5-yl)-2-azaspiro[3.3]heptan-2-yl) methanone]
- IC50 (human MAGL [2]; [7]): < 0.05 µM
- IC50 (human MAGL [1]; [8]): < 0.05 µM
- IC50 (human MAGL [1]; [9]): < 0.05 µM

SMILES: Cc1cc(C2CC3(C2)CN(C(=O)c2ccc(F)cc2OCC(F)(F)F)C3)n(-c2ccccc2C)n1 [Compound 178, [4-fluoro-2-(2,2,2-trifluoroethoxy)phenyl]{6-[3-methyl-1-(o-tolyl)-5-pyrazolyl]-2-aza-2-spiro[3.3]heptyl}methanone]
- IC50 (human MAGL [1]; [8]): < 0.05 µM
- IC50 (human MAGL [1]; [9]): < 0.05 µM
- IC50 (human MAGL [1]; Method 5: Cayman Chemical MAGL enzyme, 25 nM, read-out: MAGL Potency (Detection Method)): < 0.05 µM

SMILES: Cc1ccccc1-n1nccc1C1CC2(C1)CN(C(=O)c1cc(O)ccc1F)C2 [Compound 367, (2-fluoro-5-hydroxyphenyl) (6-(1-(o-tolyl)-1H-pyrazol-5-yl)-2-azaspiro [3.3]heptan-2-yl) methanone]
- IC50 (human MAGL [2]; [6]): 0.05 to 0.15 µM

SMILES: Cc1cn(C2CC3(C2)CN(C(=O)c2cc(O)ccc2C(F)(F)F)C3)nc1-c1ccccc1F [Compound 495]
- IC50 (human MAGL [1]; [4]): > 10 µM

SMILES: CCOc1cc(F)ccc1C(=O)N1CC2(CC(C(=O)N(C)c3cccnc3C)C2)C1 [Compound 198]
- IC50 (human MAGL [1]; Method 4: Cayman Chemical MAGL enzyme, 15 nM, read-out: Potency (MAGL inhibition)): > 10 µM

SMILES: Cc1cn(C2CC3(C2)CN(C(=O)c2cc(O)ccc2F)C3)nc1-c1cc(F)ccc1Cl [Compound 520, {6-[3-(2-chloro-5-fluorophenyl)-4-methyl-1-pyrazolyl]-2-aza-2-spiro[3.3]heptyl}(2-fluoro-5-hydroxyphenyl) methanone]
- A: degree to which MAGL enzymatic activity returned following washout (human MAGL [3]): 100

SMILES: Cc1cc(C2CC3(C2)CN(C(=O)c2ccc[nH]2)C3)n(-c2ccccc2C)n1 [Compound 183]
- IC50 (human MAGL [1]; [5]): > 10 µM

SMILES: Cc1ccccc1-c1c(C)cnn1C1CC2(C1)CN(C(=O)c1cc(O)ccc1F)C2 [Compound 405]
- IC50 (human MAGL [2]; [10]): > 10 µM

SMILES: Cc1cc(C2CC3(C2)CN(C(=O)c2cccn2C)C3)n(-c2ccccc2C)n1 [Compound 181]
- IC50 (human MAGL [1]; [5]): > 10 µM

SMILES: Cc1cc(C2CC3(C2)CN(C(=O)c2ccc4c(c2)OCC4)C3)n(-c2ccccc2C)n1 [Compound 402]
- IC50 (human MAGL [2]; [11]): > 10 µM

SMILES: O=C(c1ccc(F)cc1OC1CC1)N1CC2(CC(n3nc(C(F)(F)F)cc3-c3ccccc3C(F)(F)F)C2)C1 [Compound 424, (2-cyclopropoxy-4-fluorophenyl) (6-(3-(trifluoromethyl)-5-(2-(trifluoromethyl)phenyl)-1H-pyrazol-1-yl)-2-azaspiro[3.3]heptan-2-yl) methanone]
- IC50 (human MAGL [2]; [10]): > 10 µM

SMILES: Cc1cc(C2CC3(C2)CN(C(=O)c2cc4c(cc2F)CCO4)C3)n(-c2ccccc2C)n1 [Compound 368]
- IC50 (human MAGL [2]; [11]): > 10 µM

SMILES: O=C(c1cc(O)ccc1F)N1CC2(CC(C(=O)N3CCCC3)C2)C1 [Compound 388]
- IC50 (human MAGL [2]; [11]): > 10 µM

SMILES: Cc1ccccc1-c1ccn(C2CC3(C2)CN(C(=O)c2cc(O)ccc2F)C3)n1 [Compound 441]
- IC50 (human MAGL [2]; [10]): > 10 µM

SMILES: Cc1cc(-c2cc(F)ccc2C)n(C2CC3(C2)CN(C(=O)c2ccc(F)cc2OC(F)(F)F)C3)n1 [Compound 427]
- IC50 (human MAGL [1]; Method 11: Reaction Biology MAGL enzyme, Conc 20 (text: 25 nM), read-out: Potency (MAGL inhibition)): > 10 µM

SMILES: O=C(c1cc(O)ccc1F)N1CC2(CC(C(=O)N3CCOCC3)C2)C1 [Compound 384]
- IC50 (human MAGL [2]; [11]): > 10 µM

SMILES: O=C(c1cc(O)ccc1F)N1CC2(CC(C(=O)N3CCC4(COC4)C3)C2)C1 [Compound 391]
- IC50 (human MAGL [2]; [11]): > 10 µM

SMILES: Cc1cn(C2CC3(C2)CN(C(=O)c2cc(O)ccc2F)C3)nc1-c1ccccc1Cl [Compound 416]
- IC50 (human MAGL [2]; [10]): > 10 µM

SMILES: Cc1cc(C2CC3(C2)CN(C(=O)c2cccc4c2CCO4)C3)n(-c2ccccc2C)n1 [Compound 403]
- IC50 (human MAGL [2]; [11]): > 10 µM

SMILES: Cc1cc(C2CC3(C2)CN(Cc2cc(O)ccc2F)C3)n(-c2ccccc2C)n1 [Compound 150, 4-fluoro-3-((6-(3-methyl-1-(o-tolyl)-1H-pyrazol-5-yl)-2-azaspiro[3.3]heptan-2-yl)methyl) phenol]
- IC50 (human MAGL [2]; read-out: Potency (MAGL inhibition)): > 10 µM

SMILES: Cc1cnn(C2CC3(C2)CN(C(=O)c2cc(O)ccc2F)C3)c1-c1ccccc1Cl [Compound 404]
- IC50 (human MAGL [2]; [10]): > 10 µM

SMILES: Cc1cc(C2CC3(C2)CN(C(=N)c2cc(O)ccc2F)C3)n(-c2ccccc2C)n1 [Compound 144]
- IC50 (human MAGL [1]; [5]): > 10 µM

SMILES: CCOc1cc(F)ccc1C(=O)N1CC2(CC(C(=O)Nc3ccccc3C)C2)C1 [Compound 188]
- IC50 (human MAGL [1]; [5]): > 10 µM

SMILES: O=C(c1c(F)cccc1OC1CC1)N1CC2(CC(n3ncc(C(F)(F)F)c3-c3ccccc3F)C2)C1 [Compound 521]
- IC50 (human MAGL [1]; [4]): > 10 µM

SMILES: Cc1cc(C2CC3(C2)CN(C(=O)c2ccn(C)c2)C3)n(-c2ccccc2C)n1 [Compound 182]
- IC50 (human MAGL [1]; [5]): > 10 µM

SMILES: O=C(Oc1ccc([N+](=O)[O-])cc1)N1CCC(C(O)(c2ccc3c(c2)OCO3)c2ccc3c(c2)OCO3)CC1 [JZL-184, reference compound]
- A: degree to which MAGL enzymatic activity returned following washout (human MAGL [3]): complete lack of return of MAGL enzymatic activity
- B: % MAGL activity returning after washout (human MAGL [3]; relative to control, immediately following a 30 minute washout): <1%

SMILES: Cc1cc(C2CC3(C2)CN([C@H]2COc4ccccc42)C3)n(-c2ccccc2C)n1 [Compound 154]
- IC50 (human MAGL [1]; [5]): > 10 µM

SMILES: Cc1cc(C2CC3(C2)CN(C(=O)c2cc(O)ccc2C#N)C3)n(-c2ccccc2C)n1 [Compound 128, 4-hydroxy-2-({6-[3-methyl-1-(o-tolyl)-5-pyrazolyl]-2-aza-2-spiro[3.3]heptyl}carbonyl)benzonitrile]
- IC50 (human MAGL [2]; [7]): < 0.05 µM
- IC50 (human MAGL [1]; [8]): < 0.05 µM

SMILES: O=C(NCC1COC1)C1CC2(C1)CN(C(=O)c1cc(O)ccc1F)C2 [Compound 395]
- IC50 (human MAGL [2]; [11]): > 10 µM

SMILES: O=C(c1cc(O)ccc1F)N1CC2(CC(C(=O)N3CCC4(CCCO4)C3)C2)C1 (stereo not drawn) [Compound 400]
- IC50 (human MAGL [2]; [11]): > 10 µM

SMILES: Cc1cc(C2CC3(C2)CN([C@@H]2COc4ccccc42)C3)n(-c2ccccc2C)n1 [Compound 155]
- IC50 (human MAGL [1]; [5]): > 10 µM

SMILES: O=C(c1cc(O)ccc1F)N1CC2(CC(n3cc(C4CC4)c(-c4ccccc4Cl)n3)C2)C1 [Compound 445]
- IC50 (human MAGL [2]; [10]): > 10 µM

SMILES: Cc1cc(-c2ccccc2C)n(C2CC3(C2)CN(C(=O)c2cc(O)ccc2F)C3)n1 [Compound 406]
- IC50 (human MAGL [2]; [10]): > 10 µM

SMILES: Cc1ccccc1-c1cc(C)n(C2CC3(C2)CN(C(=O)c2cc(O)ccc2F)C3)n1 [Compound 442]
- IC50 (human MAGL [2]; [10]): > 10 µM

SMILES: Cc1cc(C2CC3(C2)CN([C@@H]2CCOc4ccccc42)C3)n(-c2ccccc2C)n1 [Compound 153]
- IC50 (human MAGL [1]; [5]): > 10 µM

SMILES: Cc1cc(C2CC3(C2)CN(C(=O)c2cc[nH]c2)C3)n(-c2ccccc2C)n1 [Compound 184]
- IC50 (human MAGL [1]; [5]): > 10 µM

SMILES: Cc1cc(C2CC3(C2)CN(C(=O)c2ccoc2)C3)n(-c2ccccc2C)n1 [Compound 179]
- IC50 (human MAGL [1]; [5]): > 10 µM

SMILES: Cc1cc(C2CC3(C2)CN(C(=O)c2cc(O)ccc2F)C3)n(-c2ccccc2C(F)(F)F)n1 [Compound 366, (2-fluoro-5-hydroxyphenyl) (6-{3-methyl-1-[o-(trifluoromethyl)phenyl]-5-pyrazolyl}-2-aza-2-spiro[3.3]heptyl) methanone]
- IC50 (human MAGL [2]; [6]): < 0.05 µM
